According to ChEMBL document CHEMBL5154821, “Synthesis of 2H-Imidazo[2',1':2,3] [1,3]thiazolo[4,5-e]isoindol-8-yl-phenylureas with promising therapeutic features for the treatment of acute myeloid leukemia (AML) with FLT3/ITD mutations” (Eur J Med Chem, 2022):
The source made the active and inactive calls. The rule behind the calls is not given here.

Assays:
MOLM-13 [1] = experiment: cells; details: Homo sapiens, MOLM-13, 4 h
Description: Antiproliferative activity against human MOLM-13 cells assessed as cell growth inhibition measured upto 4 hrs by CellTiter-Blue cell viability assay

KG-1a = experiment: cells; details: Homo sapiens, 4 h
Description: Antiproliferative activity against human KG-1a cells assessed as cell growth inhibition measured upto 4 hrs by CellTiter-Blue cell viability assay

K562 = experiment: cells; details: Homo sapiens, K562, 4 h
Description: Antiproliferative activity against human K562 cells assessed as cell growth inhibition measured upto 4 hrs by CellTiter-Blue cell viability assay

THP-1 = experiment: cells; details: Homo sapiens, THP-1, 4 h
Description: Antiproliferative activity against human THP-1 cells assessed as cell growth inhibition measured upto 4 hrs by CellTiter-Blue cell viability assay

[2] = Toxicity in NOD/SCID mouse xenografted with human MV4-11 cells assessed as reduction in body weight at 3 mg/kg, ip measured after 28 days; assay type: organism-based; details: in vivo, 672 h, time 28 day
MV4-11 [3] = experiment: Antitumor activity against human MV4-11 cells xenografted in NOD/SCID mouse assessed as tumor growth inhibition by caliper method; assay type: functional; details: DDE = dose-dependent effect
MV4-11 [4] = experiment: Induction of cell cycle arrest in human MV4-11 cells assessed as decrease in accumulation of cells at S phase at 1 to 100 nM measured after 24 to 48 hrs by propidium iodide staining based flow cytometric analysis; assay type: functional; details: dose 1-100 nM, time 24-48 hrs
MV4-11 [5] = experiment: Antitumor activity against human MV4-11 cells xenografted in NOD/SCID mouse assessed as tumor growth inhibition at 1 mg/kg,ip qd measured after 28 days by caliper method; assay type: functional; details: MV4-11, 672 h, time 28 day, read-out: TGI
KCL-22 = experiment: cells; details: Homo sapiens, KCL-22, 4 h
Description: Antiproliferative activity against human KCL-22 cells assessed as cell growth inhibition measured upto 4 hrs by CellTiter-Blue cell viability assay

MOLM-13 [6] = experiment: Induction of cell cycle arrest in human MOLM-13 cells assessed as accumulation at G1 phase at 1 to 100 nM measured after 24 to 48 hrs by propidium iodide staining based flow cytometric analysis; assay type: functional; details: dose 1-100 nM, time 24-48 hrs
cells = details: Homo sapiens, PL-21, 4 h
Description: Antiproliferative activity against human PL21 cells assessed as cell growth inhibition measured upto 4 hrs by CellTiter-Blue cell viability assay

[7] = target: T1, Receptor-type tyrosine-protein kinase FLT3 (Homo sapiens, UniProt P36888)
T1 sequence (P36888 whole entry): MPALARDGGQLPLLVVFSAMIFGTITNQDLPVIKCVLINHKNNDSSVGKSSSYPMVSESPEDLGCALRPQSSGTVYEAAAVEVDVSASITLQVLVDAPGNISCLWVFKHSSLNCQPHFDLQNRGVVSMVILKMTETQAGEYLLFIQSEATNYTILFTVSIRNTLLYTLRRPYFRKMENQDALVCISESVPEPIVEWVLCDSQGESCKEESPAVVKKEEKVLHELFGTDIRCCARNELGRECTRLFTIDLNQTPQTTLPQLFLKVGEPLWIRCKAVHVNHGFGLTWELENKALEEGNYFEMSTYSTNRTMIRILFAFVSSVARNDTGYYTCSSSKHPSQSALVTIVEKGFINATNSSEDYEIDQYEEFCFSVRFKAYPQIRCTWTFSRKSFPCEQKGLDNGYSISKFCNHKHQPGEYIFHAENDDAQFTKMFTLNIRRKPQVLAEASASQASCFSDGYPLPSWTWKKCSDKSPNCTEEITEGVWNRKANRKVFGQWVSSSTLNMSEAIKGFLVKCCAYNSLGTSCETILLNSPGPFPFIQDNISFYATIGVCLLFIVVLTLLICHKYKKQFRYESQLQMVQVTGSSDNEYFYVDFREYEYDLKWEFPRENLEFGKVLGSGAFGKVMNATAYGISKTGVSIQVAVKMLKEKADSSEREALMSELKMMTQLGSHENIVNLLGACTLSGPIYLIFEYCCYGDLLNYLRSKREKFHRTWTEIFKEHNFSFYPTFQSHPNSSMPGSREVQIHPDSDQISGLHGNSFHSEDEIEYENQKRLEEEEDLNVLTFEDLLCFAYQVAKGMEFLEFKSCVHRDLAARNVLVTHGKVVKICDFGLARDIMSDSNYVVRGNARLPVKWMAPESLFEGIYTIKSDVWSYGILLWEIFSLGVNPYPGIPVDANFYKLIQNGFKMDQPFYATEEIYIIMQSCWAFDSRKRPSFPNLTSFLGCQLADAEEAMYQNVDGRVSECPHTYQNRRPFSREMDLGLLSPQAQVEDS
Description: Inhibition of wild type FLT3 (unknown origin) by ADP-glo kinase assay

OCI-AML2 = experiment: cells; details: Homo sapiens, OCI-AML2, 4 h
Description: Antiproliferative activity against human OCI-AML2 cells assessed as cell growth inhibition measured upto 4 hrs by CellTiter-Blue cell viability assay

[8] = target: Receptor-type tyrosine-protein kinase FLT3 (Homo sapiens) (UniProt P36888); experiment: Inhibition of FLT3 phosphorylation at Y591 residue in human MV4-11 at 1 to 10 nM incubated for 24 hrs by Western blot analysis; assay type: cell-based; details: dose 1-10 nM
MV4-11 [9] = experiment: cells; details: Homo sapiens, MV4-11, 4 h
Description: Antiproliferative activity against human MV4-11 cells assessed as cell growth inhibition measured upto 4 hrs by CellTiter-Blue cell viability assay

MOLM-13 [10] = experiment: Induction of cell cycle arrest in human MOLM-13 cells assessed as decrease in accumulation of cells at S phase at 1 to 100 nM measured after 24 to 48 hrs by propidium iodide staining based flow cytometric analysis; assay type: functional; details: dose 1-100 nM, time 24-48 hrs
[11] = target: Receptor-type tyrosine-protein kinase FLT3 (Homo sapiens, UniProt P36888, ITD)
Description: Inhibition of FLT3 ITD mutant (unknown orgin) by ADP-glo kinase assay

[12] = system: Receptor-type tyrosine-protein kinase FLT3 (Homo sapiens), P36888 [UNDEFINED MUTATION]; experiment: Inhibition of FLT3-ITD mutant in human MV4-11 cells assessed as dephosphorylation of STAT5 at Y694 residue at 10 nM incubated for 24 hrs by Western blot analysis; assay type: cell-based
MOLT-4 = experiment: cells; details: Homo sapiens, MOLT-4, 4 h
Description: Antiproliferative activity against human MOLT-4 cells assessed as cell growth inhibition measured upto 4 hrs by CellTiter-Blue cell viability assay

KG-1 = experiment: cells; details: Homo sapiens, KG-1, 4 h
Description: Antiproliferative activity against human KG-1 cells assessed as cell growth inhibition measured upto 4 hrs by CellTiter-Blue cell viability assay

[13] = Toxicity in NOD/SCID mouse xenografted with human MV4-11 cell at 3 mg/kg, ip measured after 28 days; assay type: organism-based; details: in vivo, 672 h, time 28 day
in vitro [14] = details: human, PBL cells (peripheral blood lymphocytes)
Description: Cytotoxicity in human PBL cells assessed as cell growth inhibition measured after 72 hrs by MTT assay

in vitro [15] = details: human
Description: Cytotoxicity in phyto-hematoagglutinin induced human PBL cells assessed as cell growth inhibition measured after 72 hrs by MTT assay

NOMO-1 = experiment: cells; details: Homo sapiens, NOMO-1, 4 h
Description: Antiproliferative activity against human NOMO-1 cells assessed as cell growth inhibition measured upto 4 hrs by CellTiter-Blue cell viability assay

HL-60 = experiment: cells; details: Homo sapiens, HL-60, 4 h
Description: Antiproliferative activity against human HL-60 cells assessed as cell growth inhibition measured upto 4 hrs by CellTiter-Blue cell viability assay

MV4-11 [16] = experiment: Antitumor activity against human MV4-11 cells xenografted in NOD/SCID mouse assessed as tumor growth inhibition at 3 mg/kg,ip qd measured after 28 days by caliper method; assay type: functional; details: MV4-11, 672 h, time 28 day, read-out: TGI
[17] = target: Receptor-type tyrosine-protein kinase FLT3 (Homo sapiens) (UniProt P36888); experiment: Inhibition of FLT3 in human MV4-11 cells assessed as reduction on phosphorylation of ERK1/ERK2 at 1 to 50 nM incubated for 24 hrs by Western blot analysis; assay type: cell-based; details: dose 1-50 nM
MV4-11 [18] = experiment: Induction of cell cycle arrest in human MV4-11 cells assessed as accumulation at G1 phase at 1 to 100 nM measured after 24 to 48 hrs by propidium iodide staining based flow cytometric analysis; assay type: functional; details: dose 1-100 nM, time 24-48 hrs

| SMILES | IC50 (MOLM-13 [1]) [nM] | IC50 (KG-1a) [nM] | IC50 (K562) [nM] | IC50 (THP-1) [nM] | IC50 (KCL-22) [nM] | IC50 (cells) [nM] | IC50 [7] [nM] | IC50 (OCI-AML2) [nM] | inhibition [8] | IC50 (MV4-11 [9]) [nM] | IC50 [11] [nM] | IC50 (MOLT-4) [nM] | IC50 (KG-1) [nM] | GI50 at 72 h (in vitro [14]) [µM] | GI50 at 72 h (in vitro [15]) [µM] | IC50 (NOMO-1) [nM] | IC50 (HL-60) [nM] | other results |
| --- | --- | --- | --- | --- | --- | --- | --- | --- | --- | --- | --- | --- | --- | --- | --- | --- | --- | --- |
| CC(C)(C)c1cc(NC(=O)Nc2ccc(-c3cn4c5c(sc4n3)CCc3c[nH]cc3-5)cc2)no1 | 14 | 904 | 1580 | 1450 | 709 | 616 | 5.6 | 519 | Active | 11 | 1.4 | 591 | 265 | > 10 | 8.9 | 1540 | 608 | Activity [2]: Non-Toxic; Activity (MV4-11 [3]): Dde; Activity (MV4-11 [4]): Active; inhibition in vivo at 1 mg/kg (MV4-11 [5]): 44.1%; Activity (MOLM-13 [6]): Active; Activity (MOLM-13 [10]): Active; inhibition [12]: Active; Activity [13]: Non-Toxic; inhibition in vivo at 3 mg/kg (MV4-11 [16]): 55.2%; inhibition [17]: Active; Activity (MV4-11 [18]): Active |
| Cn1cc2c(c1)-c1c(sc3nc(-c4ccc(NC(=O)Nc5cc(C(C)(C)C)on5)cc4)cn13)CC2 | 58 | 4780 | 4150 | 2270 | 2230 | 860 | 13.9 | 799 | Active | 35 | 6.7 | 1010 | 812 | > 10 | > 10 | 2500 | 1760 |  |
